According to patent US20250326777A1, “COMPOUNDS, COMPOSITIONS AND METHODS THEREOF” (HEPAITECH (BEIJING) BIOPHARMA TECHNOLOGY CO., LTD., priority 2022, published 2025):

Biological target: T1, human MRGPRX4 (Homo sapiens, UniProt Q96LA9)
T1 construct: expressed in transfected cells
Assay: MRGPRX4 antagonist calcium (FLIPR, Fluo-8) assay in HEK293T cells stably expressing human MRGPRX4, agonist 0.2 μM deoxycholic acid-3-phosphoric acid
Assay type: cell-based
Conditions: for IC50: antagonist mode, top conc. 30 μM, ten 3-fold serial dilutions, C may also mean <40% inhibition at 2 μM, read-out: Antagonist activity (IC50 class); for inhibition at 0.5 µM: single concentration 0.5 μM
Protocol: HEK293T cells stably expressing human MRGPRX4 were cultured in DMEM medium supplements with 10% FBS, 100 U/mL penicillin-streptomycin, 20 mM HEPES and 1 μg/mL puromycin at 37° C. with 5% (v/v) CO2. One day before test, the cells were detached using TrypLE™ Express and counted using cell counter. In a 384-well plate cells were seeded at a density of 20,000 cells/well in 20 uL/well planting medium (DMEM medium supplements with 5% FBS, 100 U/mL penicillin-streptomycin and 20 mM HEPES), and incubated overnight at 37° C. with 5% (v/v) CO2. On the day of experiments, the dye solution, prepared following the manufacture's instruction of the Screen Quest™ Fluo-8 No Wash Calcium Assay Kit, was added to each well (20 μL/well) of the cell plate. The cell plate was incubated at 25° C. for 1 hour. Test compounds in different doses were transferred to the cell plate by FLIPR and the plate was kept in the dark at 25° C. for 30 minutes. The agonist solution, 0.2 μM of deoxycholic acid-3-phosphoric acid in assay buffer, was added to each well of the plate. The plate was read for 160 sec with 1 sec interval to obtain data of antagonist mode in FLIPR. For various compounds, IC50 values were calculated by fitting % inhibition against log of compound concentrations (top conc. 30 μM, ten 3-fold serial dilutions) with Hill equation using XLfit. […] Those skilled in the art appreciate that IC50 of various compounds can be assessed in accordance with the present disclosure.

[1] = HEK293T cells stably expressing human MRGPRX4
[2] = HEK-293T, HEK293T cells stably expressing human MRGPRX4

T1 sequence (Q96LA9 whole entry): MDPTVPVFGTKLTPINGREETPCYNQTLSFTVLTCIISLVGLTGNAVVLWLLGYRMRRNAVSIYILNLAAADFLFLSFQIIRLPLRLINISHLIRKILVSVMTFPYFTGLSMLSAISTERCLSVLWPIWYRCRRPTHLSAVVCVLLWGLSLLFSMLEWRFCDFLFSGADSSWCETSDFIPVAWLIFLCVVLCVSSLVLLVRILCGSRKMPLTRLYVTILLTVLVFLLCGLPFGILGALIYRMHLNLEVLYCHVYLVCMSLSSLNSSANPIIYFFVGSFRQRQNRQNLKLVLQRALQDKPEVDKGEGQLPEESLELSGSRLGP

Row | IC50 [1] | SMILES | also measured
1 | < 1 µM | O=C(O)c1ccc(-c2cc3ccc(C(F)(F)F)cc3n2C2CCCC2)c(F)c1 [Example 30] | 
2 | 1 to 10 µM | O=C(O)c1cccc(C2Cc3cc(OC(F)(F)F)ccc3O2)c1F (centres unmarked) [Example 78] | 
3 | > 10 µM | CN(C)C(=O)c1cccc(C2Cc3cc(C(F)(F)F)ccc3O2)c1F (centres unmarked) [Example 75] | 
4 | < 1 µM | O=c1[nH]c(-c2cccc([C@@H]3Cc4cc(C(F)(F)F)ccc4O3)c2F)no1 [Compound 105] | 
5 | < 1 µM | Fc1ccc([C@@H]2Cc3cc(C(F)(F)F)ccc3O2)cc1-c1nnn[nH]1 [Compound 104] | 
6 | > 10 µM | CC(C)n1c(-c2ccc(C(=O)O)cc2)cc2c(Cl)cc(C(F)(F)F)cc21 [Example 33] | 
7 | > 10 µM | O=C(O)c1cccc(-c2cc3cc(C(F)(F)F)ccc3o2)c1 [Example 50] | 
8 | > 10 µM | O=C(O)c1ccc(C2Cc3cc(C(F)(F)F)ccc3O2)cc1F (centres unmarked) [Example 55] | 
9 | > 10 µM | O=C(O)c1cccc([C@H]2Cc3cc(C(F)(F)F)ccc3O2)c1F [Compound 52B] | 
10 | > 10 µM | O=C(O)c1cccc(-c2nc3cc(C(F)(F)F)cc(Cl)c3o2)c1 [Example 43] | 
11 |  | Fc1c(-c2nnn[nH]2)cccc1[C@H]1Cc2cc(C(F)(F)F)ccc2O1 [Compound 89] | inhibition at 2 µM (HEK-293T, single concentration 2 μM, HEK293T cells stably expressing human MRGPRX4): 61%
12 | > 10 µM | O=C(O)c1cc(-c2ccccc2)cc(C2Cc3cc(C(F)(F)F)ccc3O2)c1 (centres unmarked) [Example 64] | 
13 | 1 to 10 µM | CC(C)Cn1c(-c2ccc(C(=O)O)cc2)cc2ccc(C(F)(F)F)cc21 [Example 17] | 
14 | < 1 µM | Fc1ccc(C2Cc3c(ccc4ccccc34)O2)cc1-c1nnn[nH]1 (centres unmarked) [Compound 97] | 
15 | < 1 µM | N#Cc1cc(-c2nnn[nH]2)cc(C2Cc3cc(C(F)(F)F)ccc3O2)c1 (centres unmarked) [Compound 101] | 
16 | > 10 µM | O=C(O)c1cccc(C2Cc3c(cccc3C(F)(F)F)O2)c1F (centres unmarked) [Example 77] | 
17 | > 10 µM | CNC(=O)c1cccc(C2Cc3cc(C(F)(F)F)ccc3O2)c1F (centres unmarked) [Example 74] | 
18 | > 10 µM | N#Cc1ccc2c(c1)CC(c1cccc(C(=O)O)c1F)O2 (centres unmarked) [Example 80] | 
19 | > 10 µM | O=C(O)c1cc(-c2nc3cc(C(F)(F)F)c(Cl)cc3o2)ccc1F [Example 42] | 
20 | > 10 µM | O=C(O)c1ccc(-c2cc3ccc(C(F)(F)F)cc3[nH]2)cc1 [Example 3] | 
21 | 1 to 10 µM | Cn1c(-c2ccc(C(=O)O)cc2)cc2cc(C(F)(F)F)ccc21 [Example 15] | 
22 | < 1 µM | CCCn1c(-c2ccc(C(=O)O)cc2F)cc2ccc(C(F)(F)F)cc21 [Example 18] | 
23 | > 10 µM | COc1cc(C(=O)O)cc(C2Cc3cc(C(F)(F)F)ccc3O2)c1 (centres unmarked) [Example 58] | 
24 | 1 to 10 µM | O=C(O)c1cc(C2Cc3cc(C(F)(F)F)ccc3O2)ccc1F (centres unmarked) [Example 53] | 
25 | 1 to 10 µM | Cn1c(-c2ccc(C(=O)O)cc2F)cc2ccc(C(F)(F)F)cc21 [Example 14] | 
26 | < 1 µM | Fc1ccc(C2Cc3cc(C(F)(F)F)ccc3O2)cc1-c1nnn[nH]1 (centres unmarked) [Compound 98] | 

Row | IC50 [1] | SMILES | also measured
27 | < 1 µM | Cc1cc(-c2nnn[nH]2)c(F)c(C2Cc3cc(C(F)(F)F)ccc3O2)c1 (centres unmarked) [Compound 99] | 
28 | > 10 µM | O=C(O)c1cccc(C2Cc3cccc(C(F)(F)F)c3O2)c1F (centres unmarked) [Example 83] | 
29 |  | FC(F)(F)c1ccc2c(c1)CC(c1cccc(-c3nnn[nH]3)c1)O2 (centres unmarked) [Compound 93] | inhibition at 0.5 µM [2]: 24%
30 | < 1 µM | Fc1cc(-c2nnn[nH]2)cc(C2Cc3cc(C(F)(F)F)ccc3O2)c1 (centres unmarked) [Compound 91] | 
31 | 1 to 10 µM | Cn1c(-c2ccc(C(=O)O)cc2)cc2c(Cl)cc(C(F)(F)F)cc21 [Example 13] | 
32 | > 10 µM | Cn1c(-c2ccc(C(=O)O)cc2)cc2cc(Cl)c(Cl)cc21 [Example 12] | 
33 | > 10 µM | O=C(O)c1cc(-c2nc3c(C(F)(F)F)c(Cl)ccc3o2)ccc1F [Example 45] | 
34 | 1 to 10 µM | O=C(O)c1ccc(-c2cc3ccc(C(F)(F)F)cc3n2-c2ccccc2)cc1 [Example 34] | 
35 | > 10 µM | O=C(O)c1cccc(C2Cc3cc(F)c(F)cc3O2)c1F (centres unmarked) [Example 81] | 
36 | < 1 µM | Fc1c(-c2nnn[nH]2)cccc1C1Cc2c(ccc3ccccc23)O1 (centres unmarked) [Compound 92] | 
37 | > 10 µM | CCCn1c(-c2ccc(C(=O)O)cc2)cc2ccc(F)cc21 [Example 20] | 
38 | > 10 µM | Cn1c(-c2cccc(C(=O)O)c2)cc2ccc(C#N)cc21 [Example 7] | 
39 | < 1 µM | O=C(O)c1cccc(C2Cc3cc(C(F)(F)F)ccc3O2)c1F (centres unmarked) [Example 52] | 
40 | < 1 µM | O=C(O)c1cccc([C@@H]2Cc3cc(C(F)(F)F)ccc3O2)c1F [Compound 52A] | MRGPRX4 inhibition activity, comparison of enantiomers (S enantiomer 52A versus 52B, see Table 1): much higher MRGPRX4 inhibition activity than 52B
41 | < 1 µM | Fc1c(-c2nnn[nH]2)cccc1[C@@H]1Cc2c(ccc3ccccc23)O1 [Compound 102] | 
42 | > 10 µM | COc1ccc2cc(-c3ccc(C(=O)O)cc3)n(C)c2c1 [Example 10] | 
43 | > 10 µM | O=C(O)c1ccc(C2Cc3ccccc3O2)cc1 (centres unmarked) [Example 59] | 
44 | > 10 µM | O=C(O)c1ccc(F)c(C2Cc3cc(C(F)(F)F)ccc3O2)c1 (centres unmarked) [Example 54] | 
45 | 1 to 10 µM | O=C(O)c1ccc(-c2cc3ccc(C(F)(F)F)cc3n2C2CCCC2)cc1F [Example 31] | 
46 | 1 to 10 µM | O=C(O)c1cc(C2CC2)cc(C2Cc3cc(C(F)(F)F)ccc3O2)c1 (centres unmarked) [Example 66] | 
47 | < 1 µM | Cc1cc(-c2nnn[nH]2)cc(C2Cc3cc(C(F)(F)F)ccc3O2)c1 (centres unmarked) [Compound 94] | 
48 |  | Cc1ccc2c(c1)CC(c1cccc(-c3nnn[nH]3)c1F)O2 (centres unmarked) [Compound 95] | inhibition at 0.5 µM [2]: 8.6%
49 | > 10 µM | O=C(O)c1ccc(-c2nc3c(C(F)(F)F)c(F)ccc3o2)cc1F [Example 44] | 
50 | > 10 µM | O=C(O)c1cccc(C2Cc3cc(F)cc(F)c3O2)c1F (centres unmarked) [Example 82] | 
51 | > 10 µM | Cn1c(-c2ccc(P(=O)(O)O)cc2)cc2ccc(C(F)(F)F)cc21 [Example 71] | 
52 | > 10 µM | CCCn1c(-c2ccc(C(=O)O)cc2)cc2ccc(S(C)(=O)=O)cc21 [Example 24] | 

Row | IC50 [1] | SMILES | also measured
53 | > 10 µM | CCCn1c(-c2ccc(C(=O)O)cc2)cc2ccc(OC(F)(F)F)cc21 [Example 21] | 
54 | > 10 µM | O=C(O)c1cccc(C2CCc3cc(C(F)(F)F)ccc3O2)c1F (centres unmarked) [Example 76] | 
55 | 1 to 10 µM | O=C(O)c1cc(Cl)cc(C2Cc3cc(C(F)(F)F)ccc3O2)c1 (centres unmarked) [Example 62] | 
56 | > 10 µM | O=C(O)c1ccc(-c2cc3ccc(C(F)(F)F)cc3n2-c2ccccc2)c(F)c1 [Example 36] | 
57 | > 10 µM | NC(=O)c1cccc(C2Cc3cc(C(F)(F)F)ccc3O2)c1F (centres unmarked) [Example 73] | 
58 |  | FC(F)(F)c1ccc2c(c1)CC(c1cc(-c3nnn[nH]3)cc(C3CC3)c1)O2 (centres unmarked) [Compound 90] | inhibition at 0.5 µM [2]: 27%
59 | > 10 µM | O=C(O)c1ccc(-c2[nH]c3cc(C(F)(F)F)ccc3c2F)cc1 [Example 38] | 
60 | > 10 µM | O=C(O)c1ccc(-c2cc3ccc(C(F)(F)F)cc3n2-c2ccccc2)cc1F [Example 35] | 
61 | 1 to 10 µM | O=C(O)c1cccc(C2Cc3cc(C(F)(F)F)ccc3O2)c1 (centres unmarked) [Example 60] | 
62 | > 10 µM | CC(C)n1c(-c2ccc(C(=O)O)cc2)cc2cc(Cl)c(Cl)cc21 [Example 11] | 
63 | > 10 µM | Cc1c(C(=O)O)cccc1C1Cc2cc(C(F)(F)F)ccc2O1 (centres unmarked) [Example 68] | 
64 | 1 to 10 µM | Cc1cc(C(=O)O)cc(C2Cc3cc(C(F)(F)F)ccc3O2)c1 (centres unmarked) [Example 67] | 
65 | > 10 µM | O=C(O)c1cc(F)cc(-c2nc3cc(C(F)(F)F)c(Cl)cc3o2)c1 [Example 46] | 
66 | > 10 µM | O=C(O)c1cccc(C2Cc3cc(F)cc(Cl)c3O2)c1F (centres unmarked) [Example 84] | 
67 |  | Fc1c(-c2nnn[nH]2)cccc1C1Cc2cc(OC(F)(F)F)ccc2O1 (centres unmarked) [Compound 96] | inhibition at 0.5 µM [2]: 3.7%
68 | > 10 µM | Cn1c(-c2ccc(C(=O)O)cc2)cc2ccc(C#N)cc21 [Example 6] | 
69 | 1 to 10 µM | O=C(O)c1ccc(-c2cc3ccc(C(F)(F)F)cc3n2C2CCCCC2)cc1 [Example 29] | 
70 | > 10 µM | Cn1c(-c2ccc(F)c(C(=O)O)c2)cc2ccc(C(F)(F)F)cc21 [Example 2] | 
71 | < 1 µM | Fc1ccc([C@@H]2Cc3c(ccc4ccccc34)O2)cc1-c1nnn[nH]1 [Compound 103] | 
72 | > 10 µM | O=C(O)c1ccc(C2Cc3cc(C(F)(F)F)ccc3O2)cc1 (centres unmarked) [Example 61] | 
73 | 1 to 10 µM | CCCn1c(-c2ccc(C(=O)O)cc2)cc2ccc(C(F)(F)F)cc21 [Example 16] | 
74 | > 10 µM | CN1c2cc(C(F)(F)F)ccc2CC1c1ccc(C(=O)O)cc1 (centres unmarked) [Example 40] | 
75 | > 10 µM | Cn1c(-c2ccc(C(=O)O)cc2)cc2ccc(C(=O)O)cc21 [Example 9] | 
76 | < 1 µM | Fc1c(-c2nnn[nH]2)cccc1[C@@H]1Cc2cc(C(F)(F)F)ccc2O1 [Compound 88] | 
77 | > 10 µM | Cn1c(-c2ccc(C(=O)O)cc2)cc2cccc(-c3ccccc3)c21 [Example 25] | 

Row | SMILES | IC50 [1] | also measured
78 | CCOP(=O)(OCC)c1ccc(-c2cc3ccc(C(F)(F)F)cc3n2C)cc1 [Example 70, diethyl(4-(1-methyl-6-(trifluoromethyl)-1H-indol-2-yl)phenyl)phosphonate] | > 10 µM | 
79 | CCOP(=O)(O)c1ccc(-c2cc3ccc(C(F)(F)F)cc3n2C)cc1 [Example 72] | > 10 µM | 
